This passage reports remaining binding results from publication PMC10507085, “Pharmacological inhibition of TBK1/IKKε blunts immunopathology in a murine model of SARS-CoV-2 infection” (Nature Communications, 2023).

Among the targets are BRSK1 (Homo sapiens, UniProt Q8TDC3); CDK13 (Homo sapiens, UniProt Q14004); DDR1 (Homo sapiens, UniProt Q08345); LATS1 (Homo sapiens, UniProt O95835); LCK (Homo sapiens, UniProt P06239); MAPK8 (Homo sapiens, UniProt P45983); MYLK3 (Homo sapiens, UniProt Q32MK0); PIK3CA (Homo sapiens, UniProt P42336); PIP5K1C (Homo sapiens, UniProt O60331); PRKAA2 (Homo sapiens, UniProt P54646); PRKCQ (Homo sapiens, UniProt Q04759); STK32C (Homo sapiens, UniProt Q86UX6); STK38L (Homo sapiens, UniProt Q9Y2H1); SYK (Homo sapiens, UniProt P43405); TGFBR2 (Homo sapiens, UniProt P37173); WEE1 (Homo sapiens, UniProt P30291).

What all share (assay): biochemical
Set-up in all cases: KINOMEscan competition binding, DNA-tagged kinase against immobilised ligand, qPCR read-out
What all share (conditions): read-out: Percent Control
Background: In qPCR the cycle at which signal appears reflects the starting amount.

For a further experiment, the target named is T1, ABL1-nonphosphorylated (Homo sapiens, UniProt P00519).
T1 construct: nonphosphorylated

Another experiment deals with T2, ADRBK1 (Homo sapiens, UniProt P25098).
T2 construct: gene GRK2

For experiment [1], the target named is T3, JAK2(JH1domain-catalytic) (Homo sapiens, UniProt O60674).
T3 construct: JH1 domain catalytic

Experiment [2] addresses T4, JAK3(JH1domain-catalytic) (Homo sapiens, UniProt P52333).
T4 construct: JH1 domain catalytic

Chain of MYLK3 (Q32MK0 whole entry): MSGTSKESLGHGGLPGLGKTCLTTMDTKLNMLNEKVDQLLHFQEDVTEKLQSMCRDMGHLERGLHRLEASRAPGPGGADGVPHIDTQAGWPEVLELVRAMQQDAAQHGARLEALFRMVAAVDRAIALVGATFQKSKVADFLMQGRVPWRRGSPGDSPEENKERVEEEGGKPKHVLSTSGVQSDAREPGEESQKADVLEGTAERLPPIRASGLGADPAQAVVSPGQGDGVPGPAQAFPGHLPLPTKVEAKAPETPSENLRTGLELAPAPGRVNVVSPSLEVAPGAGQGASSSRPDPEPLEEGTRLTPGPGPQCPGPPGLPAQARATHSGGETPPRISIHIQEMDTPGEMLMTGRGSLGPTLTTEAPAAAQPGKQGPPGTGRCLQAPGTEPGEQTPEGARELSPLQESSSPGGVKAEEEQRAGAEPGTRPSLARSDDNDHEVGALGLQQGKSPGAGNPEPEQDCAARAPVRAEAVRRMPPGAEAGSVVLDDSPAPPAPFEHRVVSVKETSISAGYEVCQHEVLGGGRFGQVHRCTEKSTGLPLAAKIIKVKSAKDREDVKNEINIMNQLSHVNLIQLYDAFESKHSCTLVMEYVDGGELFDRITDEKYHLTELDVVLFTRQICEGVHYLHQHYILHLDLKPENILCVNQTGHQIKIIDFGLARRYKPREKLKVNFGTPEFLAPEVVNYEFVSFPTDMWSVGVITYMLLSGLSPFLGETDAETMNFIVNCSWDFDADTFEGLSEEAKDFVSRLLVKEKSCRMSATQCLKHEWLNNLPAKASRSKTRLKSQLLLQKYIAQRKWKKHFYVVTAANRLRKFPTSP
Chain of WEE1 (P30291 whole entry): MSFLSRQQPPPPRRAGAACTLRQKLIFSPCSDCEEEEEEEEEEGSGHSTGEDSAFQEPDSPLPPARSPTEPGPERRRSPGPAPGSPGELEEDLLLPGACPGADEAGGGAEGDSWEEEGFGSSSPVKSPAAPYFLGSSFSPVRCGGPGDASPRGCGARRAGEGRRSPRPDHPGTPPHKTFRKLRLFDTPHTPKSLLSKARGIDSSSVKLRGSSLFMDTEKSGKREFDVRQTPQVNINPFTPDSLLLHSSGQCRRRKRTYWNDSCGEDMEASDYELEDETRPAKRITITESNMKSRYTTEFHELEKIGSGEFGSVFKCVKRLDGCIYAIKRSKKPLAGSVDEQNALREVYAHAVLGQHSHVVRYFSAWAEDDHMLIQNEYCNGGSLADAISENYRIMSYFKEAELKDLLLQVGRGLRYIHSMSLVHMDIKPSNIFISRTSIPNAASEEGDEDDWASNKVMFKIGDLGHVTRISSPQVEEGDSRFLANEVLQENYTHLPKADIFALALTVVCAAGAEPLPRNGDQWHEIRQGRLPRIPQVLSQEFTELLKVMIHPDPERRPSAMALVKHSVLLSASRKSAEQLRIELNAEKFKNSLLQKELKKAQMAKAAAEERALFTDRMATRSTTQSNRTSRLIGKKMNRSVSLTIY
Chain of BRSK1 (Q8TDC3 whole entry): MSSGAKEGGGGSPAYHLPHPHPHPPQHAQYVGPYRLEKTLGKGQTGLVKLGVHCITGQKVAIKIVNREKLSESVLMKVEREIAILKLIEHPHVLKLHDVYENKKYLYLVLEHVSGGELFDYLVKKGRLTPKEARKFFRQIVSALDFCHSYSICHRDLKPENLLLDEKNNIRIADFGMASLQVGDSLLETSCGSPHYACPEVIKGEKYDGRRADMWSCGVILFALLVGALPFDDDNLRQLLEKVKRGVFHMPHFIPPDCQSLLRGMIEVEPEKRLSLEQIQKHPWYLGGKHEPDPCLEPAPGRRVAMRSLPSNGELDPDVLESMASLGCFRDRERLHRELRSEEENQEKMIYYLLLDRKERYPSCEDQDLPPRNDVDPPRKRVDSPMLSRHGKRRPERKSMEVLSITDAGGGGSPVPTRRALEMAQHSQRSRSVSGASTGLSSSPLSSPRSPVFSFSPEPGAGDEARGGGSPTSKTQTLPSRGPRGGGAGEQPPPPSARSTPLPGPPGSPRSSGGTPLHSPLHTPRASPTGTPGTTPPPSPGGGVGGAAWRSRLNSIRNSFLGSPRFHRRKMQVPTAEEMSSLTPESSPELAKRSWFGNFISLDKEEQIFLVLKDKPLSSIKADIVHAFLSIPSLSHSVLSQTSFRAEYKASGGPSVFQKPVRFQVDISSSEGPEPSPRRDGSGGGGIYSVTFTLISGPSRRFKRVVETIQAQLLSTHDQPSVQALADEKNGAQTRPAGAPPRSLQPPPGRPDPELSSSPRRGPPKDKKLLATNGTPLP
T4 sequence (P52333 whole entry, the tested form may be a part): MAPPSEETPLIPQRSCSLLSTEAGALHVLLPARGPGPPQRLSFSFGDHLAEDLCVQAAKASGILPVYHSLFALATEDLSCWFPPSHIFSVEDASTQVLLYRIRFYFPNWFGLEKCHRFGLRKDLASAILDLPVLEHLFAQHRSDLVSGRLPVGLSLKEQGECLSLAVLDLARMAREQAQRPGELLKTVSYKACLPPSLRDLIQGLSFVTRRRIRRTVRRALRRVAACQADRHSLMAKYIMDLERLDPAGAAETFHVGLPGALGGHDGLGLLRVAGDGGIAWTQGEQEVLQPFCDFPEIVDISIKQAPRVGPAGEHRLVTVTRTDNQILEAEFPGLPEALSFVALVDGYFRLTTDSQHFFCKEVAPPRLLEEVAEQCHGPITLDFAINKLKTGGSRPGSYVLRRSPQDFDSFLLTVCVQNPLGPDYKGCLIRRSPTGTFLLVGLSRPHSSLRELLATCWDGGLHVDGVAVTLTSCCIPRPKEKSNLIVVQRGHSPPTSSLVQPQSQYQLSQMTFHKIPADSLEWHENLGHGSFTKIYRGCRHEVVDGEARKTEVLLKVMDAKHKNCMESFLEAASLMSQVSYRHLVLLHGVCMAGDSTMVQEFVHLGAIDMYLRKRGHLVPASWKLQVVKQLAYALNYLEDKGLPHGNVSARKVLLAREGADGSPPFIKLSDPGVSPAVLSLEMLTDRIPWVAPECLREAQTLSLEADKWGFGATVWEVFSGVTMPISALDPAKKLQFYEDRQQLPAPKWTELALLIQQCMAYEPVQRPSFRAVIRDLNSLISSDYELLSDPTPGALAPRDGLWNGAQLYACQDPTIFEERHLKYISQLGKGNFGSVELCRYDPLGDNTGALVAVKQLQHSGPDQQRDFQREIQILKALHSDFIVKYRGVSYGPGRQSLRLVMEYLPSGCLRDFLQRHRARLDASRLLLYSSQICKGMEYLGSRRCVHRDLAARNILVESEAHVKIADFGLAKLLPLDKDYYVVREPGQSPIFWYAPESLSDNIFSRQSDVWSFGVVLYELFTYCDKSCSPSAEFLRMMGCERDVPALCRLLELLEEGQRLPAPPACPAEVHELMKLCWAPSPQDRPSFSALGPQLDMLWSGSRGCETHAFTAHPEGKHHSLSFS
Chain of STK38L (Q9Y2H1 whole entry): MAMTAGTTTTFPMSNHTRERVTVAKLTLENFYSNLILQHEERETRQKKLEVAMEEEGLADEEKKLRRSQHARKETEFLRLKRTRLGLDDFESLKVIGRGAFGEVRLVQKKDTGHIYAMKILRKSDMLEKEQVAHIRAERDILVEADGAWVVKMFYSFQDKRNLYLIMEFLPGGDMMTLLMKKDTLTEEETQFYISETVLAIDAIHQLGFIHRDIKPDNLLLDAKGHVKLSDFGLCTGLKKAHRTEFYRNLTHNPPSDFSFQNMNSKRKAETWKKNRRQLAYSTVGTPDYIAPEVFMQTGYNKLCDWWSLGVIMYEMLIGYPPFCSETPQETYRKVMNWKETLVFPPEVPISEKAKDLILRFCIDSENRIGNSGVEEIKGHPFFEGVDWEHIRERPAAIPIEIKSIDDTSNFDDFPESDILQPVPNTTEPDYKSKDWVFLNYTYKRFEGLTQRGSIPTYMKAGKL
Chain of MAPK8 (P45983 whole entry): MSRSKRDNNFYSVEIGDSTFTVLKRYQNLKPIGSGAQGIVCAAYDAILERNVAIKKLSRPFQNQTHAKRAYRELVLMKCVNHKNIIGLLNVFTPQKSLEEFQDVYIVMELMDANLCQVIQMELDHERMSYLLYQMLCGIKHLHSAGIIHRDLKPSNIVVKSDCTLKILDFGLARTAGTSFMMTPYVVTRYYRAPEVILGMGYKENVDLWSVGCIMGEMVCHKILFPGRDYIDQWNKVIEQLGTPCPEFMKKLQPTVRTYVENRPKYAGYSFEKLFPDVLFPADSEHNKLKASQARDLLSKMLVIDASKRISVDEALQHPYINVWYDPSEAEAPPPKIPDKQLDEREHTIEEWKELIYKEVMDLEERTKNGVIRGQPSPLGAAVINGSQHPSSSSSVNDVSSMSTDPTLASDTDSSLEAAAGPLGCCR
Chain of PIP5K1C (O60331 whole entry): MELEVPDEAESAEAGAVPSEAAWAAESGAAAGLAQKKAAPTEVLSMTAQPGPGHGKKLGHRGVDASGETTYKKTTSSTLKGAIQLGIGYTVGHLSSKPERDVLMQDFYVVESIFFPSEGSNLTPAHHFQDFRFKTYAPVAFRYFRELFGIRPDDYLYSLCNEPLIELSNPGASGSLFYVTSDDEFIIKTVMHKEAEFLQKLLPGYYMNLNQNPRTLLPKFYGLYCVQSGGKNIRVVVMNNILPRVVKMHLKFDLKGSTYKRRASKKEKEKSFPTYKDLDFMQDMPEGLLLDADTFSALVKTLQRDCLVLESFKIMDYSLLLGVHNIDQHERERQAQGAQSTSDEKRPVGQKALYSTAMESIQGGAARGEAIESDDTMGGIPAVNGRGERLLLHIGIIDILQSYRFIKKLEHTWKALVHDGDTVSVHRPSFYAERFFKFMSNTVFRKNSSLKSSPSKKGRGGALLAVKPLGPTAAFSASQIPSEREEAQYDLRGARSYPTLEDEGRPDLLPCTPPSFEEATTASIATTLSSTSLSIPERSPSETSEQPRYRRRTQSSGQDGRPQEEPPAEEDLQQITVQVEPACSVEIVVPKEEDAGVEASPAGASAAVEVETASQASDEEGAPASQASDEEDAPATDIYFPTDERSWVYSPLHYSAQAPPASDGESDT

Consider `Oc1ccc(C2=Cc3ccc(O)cc3OC2)cc1` [compound 1, idronoxil], for which the remaining binding at 10 µM at ABL1-nonphosphorylated was found to be 32%; on ADRBK1 it was 76%; on BRSK1, 76%; at CDK13 it was 100%; at DDR1 it was 87%; in experiment [1], 81%. For the same compound, the remaining binding at 10 µM in experiment [2] came to 52%; on LATS1, 100%; at LCK, 60%; on MAPK8, 68%; on MYLK3, 66%; at PIK3CA, 89%. Moreover, the remaining binding at 10 µM at PIP5K1C came to 25%; at PRKAA2 it was 84%; on PRKCQ it was 73%; at STK32C, 54%; on STK38L, 92%; at SYK, 62%. For the same compound, the remaining binding at 10 µM on TGFBR2 worked out at 100%; at WEE1, 84%.
